These results are taken from BindingDB's records for doi:10.1016/j.bmcl.2019.126715 (Merck, 2020).

SMILES strings stand for the structures.

The target of this test is Proto-oncogene tyrosine-protein kinase Src (Homo sapiens) (UniProt P12931). Put plainly: Inhibition of recombinant full length human SRCN1 expressed in baculovirus expression system using tyrosine-2 peptide as substrate incubated for 60 mins in presence of ATP by Z'-LYTE assay.
Sequence of Proto-oncogene tyrosine-protein kinase Src (Homo sapiens) (P12931 whole entry, looked up): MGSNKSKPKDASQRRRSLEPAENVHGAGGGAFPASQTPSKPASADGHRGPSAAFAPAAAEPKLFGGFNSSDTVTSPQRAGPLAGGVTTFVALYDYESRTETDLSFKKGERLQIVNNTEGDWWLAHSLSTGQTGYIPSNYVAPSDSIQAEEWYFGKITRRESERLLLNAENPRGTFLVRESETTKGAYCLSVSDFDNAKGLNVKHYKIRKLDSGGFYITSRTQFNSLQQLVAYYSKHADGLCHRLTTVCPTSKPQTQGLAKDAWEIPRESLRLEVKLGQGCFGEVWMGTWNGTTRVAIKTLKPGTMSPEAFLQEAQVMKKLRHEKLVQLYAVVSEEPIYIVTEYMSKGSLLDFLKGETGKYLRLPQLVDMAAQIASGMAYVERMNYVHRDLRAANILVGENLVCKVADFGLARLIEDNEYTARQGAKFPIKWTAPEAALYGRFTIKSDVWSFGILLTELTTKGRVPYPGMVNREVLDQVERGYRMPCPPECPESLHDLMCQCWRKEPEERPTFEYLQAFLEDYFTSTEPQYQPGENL

Turning to `C[C@@H]1C[C@H]1C(=O)N1CCN(c2cnc(C#N)c(-c3cnn(C)c3)n2)C[C@H]1C`, the IC50 (as a rule, the midpoint of a concentration-inhibition curve) was above 100 µM.
